Results from PubChem BioAssay (NCI).
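Each compound was tested at five concentrations against cells in 96-well plates for 48 hours. At the GI50, growth is halved. TGI: total growth inhibition.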

Experiments:
Assay in all cases: NCI tumour cell line growth inhibition, 48 h
[1] = system: 786-0 renal
[2] = system: A498 renal
[3] = system: A549 NSCLC
[4] = system: ACHN renal
[5] = system: BT-549 breast
[6] = system: CAKI-1 renal
[7] = system: CCRF-CEM leukemia
[8] = system: COLO 205 colon
[9] = system: DU-145 prostate
[10] = system: EKVX NSCLC
[11] = system: HCC-2998 colon
[12] = system: HCT-116 colon
[13] = system: HCT-15 colon
[14] = system: HL-60(TB) leukemia
[15] = system: HOP-62 NSCLC
[16] = system: HOP-92 NSCLC
[17] = system: HS 578T breast
[18] = system: HT29 colon
[19] = system: IGROV1 ovarian
[20] = system: K-562 leukemia
[21] = system: KM12 colon
[22] = system: LOX IMVI melanoma
[23] = system: M14 melanoma
[24] = system: MALME-3M melanoma
[25] = system: MCF7 breast
[26] = system: MDA-MB-231 breast
[27] = system: MDA-MB-435
[28] = system: MOLT-4 leukemia
[29] = system: NCI-H226 lung
[30] = system: NCI-H23 lung
[31] = system: NCI-H460 lung
[32] = system: NCI-H522 lung
[33] = system: NCI/ADR-RES ovarian
[34] = system: OVCAR-3 ovarian
[35] = system: OVCAR-4 ovarian
[36] = system: OVCAR-5 ovarian
[37] = system: OVCAR-8 ovarian
[38] = system: PC-3 prostate
[39] = system: RPMI-8226 leukemia
[40] = system: RXF 393 renal
[41] = system: SF-268 CNS
[42] = system: SF-295 CNS
[43] = system: SF-539 CNS
[44] = system: SK-MEL-2 melanoma
[45] = system: SK-MEL-28 melanoma
[46] = system: SK-MEL-5 melanoma
[47] = system: SK-OV-3 ovarian
[48] = system: SN12C renal
[49] = system: SNB-19 CNS
[50] = system: SNB-75 CNS
[51] = system: SR leukemia
[52] = system: SW-620 colon
[53] = system: T-47D breast
[54] = system: TK-10 renal
[55] = system: U251 CNS
[56] = system: UACC-257 melanoma
[57] = system: UACC-62 melanoma
[58] = system: UO-31 renal

For CC(CN)[C@@H]1CC[C@]2(CO)CC[C@]3(C)[C@H](CC[C@@H]4[C@@]5(C)CCC(NCCO)C(C)(C)[C@@H]5CC[C@]43C)[C@@H]12 (some centres not stated), the GI50 [1] was 1.55 µM, the TGI [1] was 3 µM and the GI50 [2] was 11 µM. It also gave a TGI [2] of 23.5 µM, a GI50 [3] of 1.68 µM and a TGI [3] of 3.08 µM. The GI50 [4] was 5.2 µM, the TGI [4] was 17.6 µM and the GI50 [5] was 3.77 µM. For the same molecule, the TGI [5] was 16.3 µM, the GI50 [6] was 4.12 µM and the TGI [6] was 16.6 µM. For the same molecule, the GI50 [7] was 1.99 µM, the TGI [7] was 5 µM and the GI50 [8] was 1.73 µM. For the same molecule, the TGI [8] was 3.55 µM, the GI50 [9] was 2.34 µM and the TGI [9] was 5.32 µM. For the same molecule, the GI50 [10] was 2.1 µM, the TGI [10] was 5.01 µM and the GI50 [11] was 1.89 µM. It also gave a TGI [11] of 3.57 µM, a GI50 [12] of 1.66 µM and a TGI [12] of 3.41 µM. The GI50 [13] was 1.98 µM, the TGI [13] was 3.97 µM and the GI50 [14] was 2.65 µM. The TGI [14] was 7.47 µM, the GI50 [15] was 2 µM and the TGI [15] was 4.08 µM. The GI50 [16] was 1.3 µM, the TGI [16] was 2.94 µM and the GI50 [17] was 1.87 µM. For the same molecule, the TGI [17] was 4.59 µM, the GI50 [18] was 1.62 µM and the TGI [18] was 3.26 µM. It also gave a GI50 [19] of 4.79 µM, a TGI [19] of 19.2 µM and a GI50 [20] of 1.54 µM. For the same molecule, the TGI [20] was 3.35 µM, the GI50 [21] was 1.9 µM and the TGI [21] was 4.14 µM. The GI50 [22] was 1.64 µM, the TGI [22] was 3.12 µM and the GI50 [23] was 1.92 µM. For the same molecule, the TGI [23] was 3.68 µM, the GI50 [24] was 1.62 µM and the TGI [24] was 3.16 µM. It also gave a GI50 [25] of 1.78 µM, a TGI [25] of 3.62 µM and a GI50 [26] of 1.38 µM. For the same molecule, the TGI [26] was 2.86 µM, the GI50 [27] was 1.7 µM and the TGI [27] was 3.14 µM. It also gave a GI50 [28] of 1.56 µM, a TGI [28] of 4.28 µM and a GI50 [29] of 3.94 µM. For the same molecule, the TGI [29] was 17.5 µM, the GI50 [30] was 2.29 µM and the TGI [30] was 5.47 µM. The GI50 [31] was 1.79 µM, the TGI [31] was 3.43 µM and the GI50 [32] was 1.67 µM. For the same molecule, the TGI [32] was 3.27 µM, the GI50 [33] was 6.83 µM and the TGI [33] was 22.2 µM. It also gave a GI50 [34] of 2.1 µM, a TGI [34] of 4.6 µM and a GI50 [35] of 2.7 µM. For the same molecule, the TGI [35] was 9.09 µM, the GI50 [36] was 2.11 µM and the TGI [36] was 5 µM. It also gave a GI50 [37] of 1.69 µM, a TGI [37] of 3.28 µM and a GI50 [38] of 2.53 µM. It also gave a TGI [38] of 11.4 µM, a GI50 [39] of 1.89 µM and a TGI [39] of 4.5 µM. For the same molecule, the GI50 [40] was 1.51 µM, the TGI [40] was 2.97 µM and the GI50 [41] was 1.75 µM. For the same molecule, the TGI [41] was 3.94 µM, the GI50 [42] was 1.74 µM and the TGI [42] was 3.4 µM. It also gave a GI50 [43] of 1.61 µM, a TGI [43] of 3.02 µM and a GI50 [44] of 1.8 µM. It also gave a TGI [44] of 3.42 µM, a GI50 [45] of 1.87 µM and a TGI [45] of 3.43 µM. For the same molecule, the GI50 [46] was 1.76 µM, the TGI [46] was 3.19 µM and the GI50 [47] was 12.5 µM. The TGI [47] was 25.2 µM, the GI50 [48] was 1.94 µM and the TGI [48] was 3.61 µM. For the same molecule, the GI50 [49] was 1.8 µM, the TGI [49] was 3.54 µM and the GI50 [50] was 1.3 µM. For the same molecule, the TGI [50] was 3.12 µM, the GI50 [51] was 1.94 µM and the TGI [51] was 4.95 µM. For the same molecule, the GI50 [52] was 1.71 µM, the TGI [52] was 3.26 µM and the GI50 [53] was 2.01 µM. For the same molecule, the TGI [53] was 4.58 µM, the GI50 [54] was 1.81 µM and the TGI [54] was 3.88 µM. It also gave a GI50 [55] of 1.6 µM, a TGI [55] of 2.95 µM and a GI50 [56] of 1.73 µM. For the same molecule, the TGI [56] was 3.15 µM, the GI50 [57] was 1.8 µM and the TGI [57] was 3.37 µM. For the same molecule, the GI50 [58] was 2.43 µM and the TGI [58] was 9.57 µM.
COc1cc2cc(Oc3ccc(NC(=O)Nc4ccccc4)cc3)c(C)nc2cc1OCCN1CCCCC1 gave a GI50 [1] of 5.58 µM, a TGI [1] of 11.1 µM and a GI50 [2] of 4.75 µM. It also gave a TGI [2] of 9.3 µM, a GI50 [3] of 7.26 µM and a TGI [3] of 18.6 µM. For the same molecule, the GI50 [4] was 5.74 µM, the TGI [4] was 10.3 µM and the GI50 [5] was 5.63 µM. For the same molecule, the TGI [5] was 11.2 µM, the GI50 [6] was 4.94 µM and the TGI [6] was 10 µM. It also gave a GI50 [7] of 1.05 µM, a TGI [7] of 4.29 µM and a GI50 [8] of 6.25 µM. For the same molecule, the TGI [8] was 13.1 µM, the GI50 [9] was 5.92 µM and the TGI [9] was 11.4 µM. The GI50 [10] was 5.22 µM, the TGI [10] was 10.9 µM and the GI50 [11] was 5.62 µM. The TGI [11] was 10.5 µM, the GI50 [12] was 4.77 µM and the TGI [12] was 10.1 µM. The GI50 [13] was 4.18 µM, the TGI [13] was 9.14 µM and the GI50 [14] was 6.43 µM. The TGI [14] was 13.3 µM, the GI50 [15] was 5.96 µM and the TGI [15] was 12.9 µM. The GI50 [16] was 2.72 µM, the TGI [16] was 7.66 µM and the GI50 [17] was 5.79 µM. For the same molecule, the TGI [17] was 14.2 µM, the GI50 [18] was 3.32 µM and the TGI [18] was 9.35 µM. It also gave a GI50 [19] of 5.68 µM, a TGI [19] of 11 µM and a GI50 [20] of 1.05 µM. The TGI [20] was 3.7 µM, the GI50 [21] was 6.8 µM and the TGI [21] was 14.3 µM. It also gave a GI50 [22] of 5.38 µM, a TGI [22] of 10.1 µM and a GI50 [23] of 5.63 µM. It also gave a TGI [23] of 11.1 µM, a GI50 [24] of 5.96 µM and a TGI [24] of 10.9 µM. The GI50 [25] was 5.14 µM, the TGI [25] was 10 µM and the GI50 [26] was 6.39 µM. It also gave a TGI [26] of 12.1 µM, a GI50 [27] of 5.55 µM and a TGI [27] of 10.1 µM. The GI50 [28] was 4.98 µM, the TGI [28] was 11.7 µM and the GI50 [29] was 5.82 µM. It also gave a TGI [29] of 12 µM, a GI50 [30] of 6.4 µM and a TGI [30] of 13.7 µM. The GI50 [31] was 6.05 µM, the TGI [31] was 11.2 µM and the GI50 [32] was 6.22 µM. The TGI [32] was 13 µM, the GI50 [33] was 6.54 µM and the TGI [33] was 14.5 µM. For the same molecule, the GI50 [34] was 6.31 µM, the TGI [34] was 13.3 µM and the GI50 [35] was 6.96 µM. It also gave a TGI [35] of 18.2 µM, a GI50 [36] of 6 µM and a TGI [36] of 11.5 µM. For the same molecule, the GI50 [37] was 6.26 µM, the TGI [37] was 15.3 µM and the GI50 [38] was 4.49 µM. For the same molecule, the TGI [38] was 9.83 µM, the GI50 [39] was 3.52 µM and the TGI [39] was 10.8 µM. It also gave a GI50 [40] of 4.42 µM, a TGI [40] of 8.99 µM and a GI50 [41] of 5.88 µM. It also gave a TGI [41] of 12.6 µM, a GI50 [42] of 6 µM and a TGI [42] of 11.2 µM. For the same molecule, the GI50 [43] was 5.46 µM, the TGI [43] was 10.3 µM and the GI50 [44] was 5.96 µM. The TGI [44] was 12.1 µM, the GI50 [45] was 5.41 µM and the TGI [45] was 9.92 µM. The GI50 [46] was 5.47 µM, the TGI [46] was 10.1 µM and the GI50 [47] was 7.8 µM. The TGI [47] was 16.6 µM, the GI50 [48] was 5.15 µM and the TGI [48] was 10.2 µM. The GI50 [49] was 5.77 µM, the TGI [49] was 11 µM and the GI50 [50] was 3.76 µM. The TGI [50] was 8.74 µM, the GI50 [51] was 0.934 µM and the TGI [51] was 2.66 µM. It also gave a GI50 [52] of 6.09 µM, a TGI [52] of 11.9 µM and a GI50 [53] of 6.12 µM. It also gave a TGI [53] of 14.5 µM, a GI50 [54] of 8.3 µM and a TGI [54] of 17.3 µM. It also gave a GI50 [55] of 5.32 µM, a TGI [55] of 11.4 µM and a GI50 [56] of 6.46 µM. For the same molecule, the TGI [56] was 12.4 µM, the GI50 [57] was 5.89 µM and the TGI [57] was 11 µM. It also gave a GI50 [58] of 3.87 µM and a TGI [58] of 7.94 µM.
